Drawing on ChEMBL document CHEMBL1139216, “Discovery and refinement of a new structural class of potent peptide deformylase inhibitors” (J Med Chem, 2007), this text covers IC50 and MIC for 15 molecules.

The structures appear in SMILES notation. In brackets after ≈: the same amount, converted by molar mass.

For assay [1], the target named is T1, Peptide deformylase, mitochondrial (Homo sapiens, UniProt Q9HBH1).
T1 sequence (Q9HBH1 whole entry): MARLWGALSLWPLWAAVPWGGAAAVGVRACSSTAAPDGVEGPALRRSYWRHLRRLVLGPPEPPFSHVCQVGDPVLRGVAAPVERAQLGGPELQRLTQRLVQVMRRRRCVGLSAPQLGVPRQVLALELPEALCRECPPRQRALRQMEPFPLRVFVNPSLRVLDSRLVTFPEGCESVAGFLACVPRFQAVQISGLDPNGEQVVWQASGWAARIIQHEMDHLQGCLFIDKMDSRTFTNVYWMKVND

Assay [2] deals with T2, Peptide deformylase 1A, chloroplastic/mitochondrial (Arabidopsis thaliana, UniProt Q9FV53).
T2 sequence (Q9FV53 whole entry): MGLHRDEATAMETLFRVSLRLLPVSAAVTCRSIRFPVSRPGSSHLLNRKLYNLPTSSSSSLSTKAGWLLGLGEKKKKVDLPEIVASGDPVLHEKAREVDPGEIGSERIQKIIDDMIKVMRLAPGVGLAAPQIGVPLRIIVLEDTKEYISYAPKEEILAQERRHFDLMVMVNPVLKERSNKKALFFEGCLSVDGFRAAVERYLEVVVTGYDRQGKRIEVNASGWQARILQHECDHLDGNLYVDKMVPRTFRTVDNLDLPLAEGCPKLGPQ

Assay [3] relates to Escherichia coli. Briefly: Antibacterial activity against Escherichia coli JM101Tr. The class given is functional.
Assay [4] deals with T3, Peptide deformylase (Escherichia coli, UniProt Q9JN24).
T3 sequence (Q9JN24 whole entry): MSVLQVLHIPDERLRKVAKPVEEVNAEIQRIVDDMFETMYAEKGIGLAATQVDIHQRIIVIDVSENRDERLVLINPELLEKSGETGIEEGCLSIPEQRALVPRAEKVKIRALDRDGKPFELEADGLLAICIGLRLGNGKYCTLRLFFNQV

Assay [5] relates to Bacillus subtilis. Briefly: Antibacterial activity against Bacillus subtilis. It is filed as functional.
The subject of assay [6] is Bacillus subtilis. Briefly: Antibacterial activity against Bacillus subtilis Y101. It is filed as functional.
For assay [7], the system named is Escherichia coli. Briefly: Antibacterial activity against Escherichia coli K37. The class given is functional.
For assay [8], the system named is Bacillus subtilis. Briefly: Antibacterial activity against Bacillus subtilis D101. The class given is functional.
In assay [9] the test system is Bacillus subtilis. Briefly: Antibacterial activity against Bacillus subtilis MO3482. It is filed as functional.
In assay [10] the test system is Bacillus subtilis. Briefly: Antibacterial activity against Bacillus subtilis 168. It is filed as functional.
Assay [11] has as its system Escherichia coli. Briefly: Antibacterial activity against Escherichia coli CAG1284. The class given is functional.

As for `Cc1c(CN(O)C=O)c2cc(Br)ccc2n1S(=O)(=O)c1ccccc1`, the half-maximal inhibitory concentration (IC50) is 200 µM in assay [1], 35 µM in assay [2] and 0.03 µM in assay [4]. Besides, the figures for the MIC in assay [3] and in [5] were 65 µg/mL (≈ 154 µM) and 35 µg/mL (≈ 82.7 µM), respectively.

Consider `CCCCC[C@H](CC(=O)NO)C(=O)N[C@H](C(=O)N1CCC[C@H]1CO)C(C)C` [ACTINONIN], for which the MIC was found to be 0.125 µg/mL (≈ 0.324 µM) in [6]; 32 µg/mL (≈ 83 µM) in assay [7]; 1 µg/mL (≈ 2.59 µM) in assay [8]; 34 µg/mL (≈ 88.2 µM) in [3]; 1 µg/mL (≈ 2.59 µM) in assay [9]; 1 µg/mL (≈ 2.59 µM) in assay [10]. Also, the MIC in assay [11] amounted to 0.125 µg/mL (≈ 0.324 µM); in assay [5] it was 1.3 µg/mL (≈ 3.37 µM). Moreover, the IC50 in assay [2] turned out to be 0.027 µM; in assay [4], 0.01 µM.

Take `CC(C)(C)OC(=O)NC(CNO)Cc1ccccc1` (stereo not given): the IC50 is above 1000 µM in assay [2] and 52 µM in assay [4].

On to `O=C(O)Cc1cn(C(=O)OCc2ccccc2)c2ccccc12`, for which the half-inhibitory concentration (IC50) in assay [2] was above 1000 µM; in assay [4], 300 µM.

Turning to `CC(=O)SCC(=O)Cc1cn(C(=O)OCc2ccccc2)c2ccccc12`, the IC50 in [2] was found to be 500 µM; in [4] it was 350 µM.

On to `O=C(CS)Cc1c[nH]c2ccc(Br)cc12`, for which the 50% inhibitory concentration (IC50) in assay [2] was found to be 200 µM; in assay [4], 80 µM.

Regarding `Cc1[nH]c2ccc(Br)cc2c1CC(=O)NO`, the IC50 in assay [1] and in [2] was 450 µM throughout. The MIC was above 300 µg/mL in [3] and 220 µg/mL (≈ 777 µM) in [5].

On to `Cc1c(CNO)c2cc(Br)ccc2n1S(=O)(=O)c1ccccc1`, for which the half-inhibitory concentration (IC50) in assay [2] worked out at 500 µM; in assay [4], 6 µM.

On to `COc1ccc2[nH]cc(CC(=O)NO)c2c1`, for which the IC50 in assay [2] was above 1000 µM. The minimal inhibitory concentration (MIC) is above 300 µg/mL in [3] and 155 µg/mL (≈ 704 µM) in [5].

Regarding `O=C(O)Cc1c[nH]c2ccccc12` [INDOLE-3-ACETIC ACID], the half-inhibitory concentration (IC50) in assay [2] and in [4] was above 1000 µM throughout.

Turning to `Cc1[nH]c2ccc(Br)cc2c1CNO`, the figures for the IC50 in [2] and in assay [4] were above 250 µM and 50 µM, respectively.

Take `CC(=O)SCC(=O)Cc1c[nH]c2ccccc12`: the IC50 was above 1000 µM in assay [2] and 200 µM in assay [4].

As to `CC(C)(C)OC(=O)NC(Cc1ccccc1)CN(O)C=O` (stereo not given), the minimum inhibitory concentration (MIC) in assay [6] is 9 µg/mL (≈ 30.6 µM); in assay [8], above 300 µg/mL; in assay [3], above 300 µg/mL; in assay [9], above 300 µg/mL; in assay [10], above 300 µg/mL; in [11] it was 120 µg/mL (≈ 408 µM). The molecule also showed a concentration for half-maximal inhibition (IC50) in assay [4] of 0.05 µM.

Turning to `CC(=O)SCC(=O)Cc1c[nH]c2ccc(Br)cc12`, the results for the concentration for half-maximal inhibition (IC50) in [2] and in assay [4] were 170 µM and 120 µM, respectively.

For the molecule `O=C(CO)Cc1c[nH]c2ccc(Br)cc12`, the MIC in assay [6], in assay [8], in assay [3], in [9], in [10] and in assay [11] was above 300 µg/mL throughout. Also, the figures for the IC50 in assay [2] and in assay [4] were 790 µM and 560 µM, respectively.

The term IC50 denotes the concentration that inhibits the measured activity by half. As usually defined, the MIC is the lowest concentration that inhibits growth of the organism. A higher MIC goes with a need for much substance.
